In patent US20110150914A1, “COMPOSITIONS AND METHODS FOR DENGUE VIRUS (DV) TREATMENT AND VACCINATION” (priority 2008, published 2011):
pIC50: −log10 of the molar value. Where two headings read alike, the source gives them in different places. Ends that are not written are not given here.

Columns and labels:
[1] = molecular target: T1, purified H-2 D^b molecules (Mus musculus, UniProt P01899); assay: MHC peptide-binding assay, purified H-2 D^b; settings: for IC50: purified MHC, radiolabeled peptide competition, read-out: Binding affinity (IC50 nM) H2-D^b
T1 construct: made in house
T1 sequence (P61769 21-119): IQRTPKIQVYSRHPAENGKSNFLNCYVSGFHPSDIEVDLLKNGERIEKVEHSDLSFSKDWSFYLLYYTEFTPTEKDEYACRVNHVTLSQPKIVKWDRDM
T1 sequence (P01899 25-362): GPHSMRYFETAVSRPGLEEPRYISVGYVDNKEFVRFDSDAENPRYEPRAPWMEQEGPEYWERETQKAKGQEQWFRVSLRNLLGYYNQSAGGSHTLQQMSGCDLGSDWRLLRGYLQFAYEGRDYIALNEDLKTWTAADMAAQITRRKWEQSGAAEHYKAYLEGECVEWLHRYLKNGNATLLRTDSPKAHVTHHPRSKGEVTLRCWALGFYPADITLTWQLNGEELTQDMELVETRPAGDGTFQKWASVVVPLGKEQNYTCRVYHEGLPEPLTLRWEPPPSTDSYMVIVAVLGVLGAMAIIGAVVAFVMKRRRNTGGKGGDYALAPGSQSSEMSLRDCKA
Protocol: (§1) Briefly, 0.1-1 nM of radiolabeled peptide was co-incubated at room temperature with 1 μM to 1 nM of purified MHC in the presence of 1-3 μM human β2-microglobulin (Scripps Laboratories) and a mixture of protease inhibitors. After a 2 day incubation, binding of the radiolabeled peptide to the corresponding MHC class I molecule was determined by capturing MHC/peptide complexes on Lumitrac 600 microplates (Greiner Bio-One) coated with either the Y3 (anti-H-2 K^b) or 28-14-8S (anti-H-2 D^b, L^d and D^q) Ab, followed by measurement of bound counts per minute (cpm) using the TopCount microscintillation counter (Packard).

[2] = test system: CD8^+ T cells; assay: IFN-γ ELISPOT with CD8^+ T cells of DENV2-infected C57BL/6 mice; type: cell-based; settings: PL046 or S221 infected C57BL/6 mice
[3] = molecular target: T2, purified H-2 K^b molecules (Mus musculus, UniProt P01901); assay: MHC peptide-binding assay, purified H-2 K^b; settings: for IC50: purified MHC, radiolabeled peptide competition, read-out: Binding affinity (IC50 nM) H2-K^b
T2 construct: made in house
T2 sequence (P61769 21-119): as the sequence (P61769 21-119) above
T2 sequence (P01901 22-369): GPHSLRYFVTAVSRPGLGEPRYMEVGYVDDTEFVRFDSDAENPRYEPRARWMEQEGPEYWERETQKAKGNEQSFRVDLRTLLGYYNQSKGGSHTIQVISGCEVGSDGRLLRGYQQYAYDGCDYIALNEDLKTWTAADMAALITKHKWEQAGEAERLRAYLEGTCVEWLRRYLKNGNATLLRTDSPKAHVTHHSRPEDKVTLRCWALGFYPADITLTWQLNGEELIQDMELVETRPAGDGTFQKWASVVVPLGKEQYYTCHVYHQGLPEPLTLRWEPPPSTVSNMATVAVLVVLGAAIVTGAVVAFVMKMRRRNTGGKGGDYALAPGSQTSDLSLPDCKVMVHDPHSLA
Protocol: as §1, with “MHC purification and quantitative assays to measure the binding affinity of peptides to purified H-2 K^b and H-2 D^b molecules were performed as previously described (Sidney et al., Curr Protoc Immunol 18:1813 2001); Vitiello et al., J Immunol 157:5555 (1996)). Briefly,” for “Briefly,”
To confirm the MHC class I restriction of the 12 identified epitopes, measurements were performed of their MHC binding capacity using purified K^b and D^b molecules in an in vitro binding assay. Seven of the 12 epitopes bound the predicted allele with either high or intermediate affinity, as indicated by an IC50 of <50 nM or <500 nM, respectively. The five remaining epitopes also bound with biologically relevant affinities in the 500-2000 nM range.

[4] = test system: CD8^+ T cells; assay: IFN-γ ELISPOT, HLA A*0201 transgenic mice; type: cell-based; settings: HLA-A*0201-restricted Jurkat cells as APC, peptide 1 μg/ml, day 7 after 10^11 GE S221
Protocol: The proteome of the DENV2 strain, S221, was inspected for the presence of peptides predicted to bind HLA A*0201 with high affinity. A total of 68 potential H-2^b binding peptides were identified. HLA A*0201 transgenic mice were infected i.v. with 10^11 GE of the DENV2 strain, S221. Seven days post-infection, splenocytes were harvested and CD8^+ T cells isolated. CD8^+ T cells (1.75×10^5) were stimulated with HLA-A*0201-restricted Jurkat cells and 1 μg/ml of individual S221-derived A*02-predicted binding peptides, and IFN-γ ELISPOT was performed. The data are expressed as the mean number of net spot-forming cells (SFC) per 10^6 CD8^+ T cells. The top 20 predicted epitopes, which includes the two positive peptides identified (indicated with an asterisk), are shown. The criteria for positivity were a stimulation index of ≧2.0, p<0.05 when compared with an irrelevant control peptide, and net SFC/10^6 cells of ≧20.
The proteome of the DENV2 strain, S221, was inspected for the presence of peptides predicted to bind HLA A*0201 with high affinity. A total of 68 potential H-2^b binding peptides were identified. HLA A*0201 transgenic mice were infected intravenously (i.v.) with 10^11 GE of the DENV2 strain, S221. […] Referring to FIG. 11, the data are expressed as the mean number of net spot-forming cells (SFC) per 10^6 CD8^+ T cells. […]

[5] = test system: CD8^+ T cells; assay: Intracellular cytokine staining (IFN-γ), splenocytes of S221-infected wild-type mice; type: cell-based, C57BL/6 mice; settings: wild-type C57BL/6, day 7 after 10^11 GE S221, peptide 0.1 μg/ml, 5 h
Protocol: (§2) All Ab were purchased from eBioscience with the exception of anti-CD8α-PerCP and anti-CD107a-FITC which were obtained from BD Biosciences. RBC in blood were lysed using RBC lysis buffer (eBioscience). For surface staining, splenocytes or blood cells were washed, incubated with supernatant from 2.4G2-producing hybridoma cells to block Fc receptors, and labeled with anti-CD8α-PerCP, anti-CD44-APC, and anti-CD62L-PE. For intracellular cytokine staining, 10^6 splenocytes or 10^5 blood cells were plated in 96-well U-bottom plates and stimulated with individual DENV peptides (0.1 μg/ml) in the presence of brefeldin A (GolgiPlug, BD Biosciences) for 5 h. For CD107a staining, CD107a-FITC (or rat IgG2a-FITC) was added to the wells at the same time as the peptide. Cells were washed, incubated with 2.4G2 supernatant, labeled with anti-CD8α-PerCP, fixed and permeabilized using the BD Cytofix/Cytoperm Kit, and stained with anti-IFN-γ-APC and anti-TNF-α-PE. Samples were read on a FACS Caliber (BD Biosciences) and analyzed using FloJo software (Tree Star, Inc.)
To confirm that the IFN-γ response to the MHC class I-binding DENV peptides was mediated by CD8^+ T cells, intracellular cytokine staining (ICS) on CD8^+ T cells isolated from S221-infected wild-type mice was performed. Splenocytes were harvested from C57BL/6 mice 7 days after infection with 10^11 genomic equivlalents (GE) S221 and were re-stimulated in vitro with individual DENV2 peptides or an irrelevant peptide (irr) at 0.1 μg/ml in the presence of brefeldin A for 5 h. Cells were then stained for surface CD8 and intracellular IFN-γ and analyzed by flow cytometry. […] The percent of CD8^+ T cells producing IFN-γ is indicated. Referring to FIG. 2B, the figure is a summary of the DENV2-specific CD8^+ IFN-γ^+ response. The response to the irrelevant control peptide was subtracted from the responses to each DENV2 peptide. Each symbol represents one mouse and the bar represents the geometric mean. The identification of the 12 positive peptides for S221 was confirmed by the intracellular cytokine staining (ICS) (FIG. 2A), and the response to the 8 most dominant peptides was determined (FIG. 2B). The responses ranged from 0.14% recognizing NS2A 36 to 9.8% of CD8^+ T cells recognizing NS4B 99.
Splenocytes were harvested from naïve C57BL/6 mice or mice 7 days after infection with 10^11 GE of S221. The percent of CD8^+ T cells expressing CD44 and CD62L was determined in four independent studies (FIG. 3A). On day 7 after infection, splenocytes were stimulated with the eight major DENV2 peptides (individually; at 0.1 μg/ml) in the presence of brefeldin A, and stained for surface CD8 and intracellular IFN-γ. The percent of CD8^+ T cells producing IFN-γ in response to the irrelevant control peptide was subtracted from the response to each DENV2 peptide to determine the net response. The net responses to the eight major DENV2 peptides were added to determine the percent of DENV2-specific CD44^hi, CD62^lo, and CD44^hiCD62L^lo CD8^+ T cells (FIG. 3B). The data are expressed as the mean percent±SEM of 11-14 mice tested in at least four independent experiments.

[6] = test system: CD8^+ T cells; assay: Intracellular cytokine staining (IFN-γ), splenocytes of S221-infected IFN-α/βR^−/− mice; type: cell-based; settings: day 7 after 10^10 GE S221
Protocol: as §2
The S221-specific CD8^+ T cell response in the IFN-α/βR^−/− mice was studied. […]
The S221-specific CD8^+ T cell response in IFN-α/βR^−/− mice was further studied. […] Referring to FIGS. 5C, 5E and 5F, the number of splenic CD8^+ T cells in naïve (n=4) and infected (n=7) mice was measured (results described above). […] The data are expressed as the percent±SEM of seven mice tested in three independent experiments.
The initial epitope identification studies were performed in wild-type mice. […] Cells were then stained for surface CD8 and intracellular IFN-γ and analyzed by flow cytometry. […] Results are expressed as the mean±SEM of 13 wild-type and 7 IFN-α/βR^−/− mice were tested in at least three independent experiments. Referring FIGS. 8C and D, the figures show kinetics of the DENV-specific CD8^+ T cell response as determined by the study. […]

[7] = test system: DENV peptide-pulsed target cells; assay: In vivo cytotoxicity assay; settings: IFN-α/βR^−/− mice infected 7 days previously with 10^10 GE S221; 4 h after i.v. transfer; targets pulsed 0.5 μg/ml
[8] = test system: CD8^+ T cells; assay: TNF-α and CD107a staining after peptide re-stimulation; type: cell-based, wild-type or IFN-α/βR^−/− mice; settings: splenocytes day 7 after S221 infection
Protocol: as §2
Because polyfunctional CD8^+ T cell responses are associated with protection (Harari et al., Immunol Rev 211:236 (2006)), the phenotype of the DENV-specific CD8^+ T cells in wild-type and IFN-α/βR^−/− mice was studied in more detail by measuring CD107a expression (CD107a, or LAMP-1, is expressed on the cell surface upon degranulation) and TNF-α production for two of the DENV-specific CD8^+ T cell populations, as described above. To collect the data, splenocytes harvested from wild-type or IFN-α/βR^−/− mice 7 days after infection with 10^11 or 10^10 GE of S221, respectively, were re-stimulated in vitro with C51-59, NS4B99-107, or an irrelevant peptide. An anti-CD107a Ab was added for the duration of the stimulation. Cells were then stained for surface CD8, intracellular IFN-γ and TNF-α, and analyzed by flow cytometry.

| Sequence | IC50 [1] | IFN-γ ELISPOT response (net SFC per 10^6 CD8^+ T cells), in words [2] | pIC50 [3] | IC50 [3] | other results |
| --- | --- | --- | --- | --- | --- |
| FSLGVLGM [NS2A8-15] | 1800 nM | highest responses | < 5.70 |  |  |
| GMLQGRGPL [Epitope C36-44] | 820 nM |  |  | 1340 nM |  |
| KLAEAIFKL (listed as Dengue virus) |  |  |  |  | IFN-γ ELISPOT positivity [4]: positive |
| LAVTIMAIL [NS2A145-153] | 644 nM |  | < 5.70 |  |  |
| MTMRCIGI [Epitope E-2-6] |  | highest responses |  | 1080 nM | pIC50 [1]: < 5.70 |
| RALIFILL [Epitope M60-67] |  |  |  | 22 nM | percent of CD8^+ T cells producing IFN-γ / recognizing the peptide [5]: 0.4%; % of splenic CD8^+ T cells recognizing the peptide [6]: 11%; pIC50 [1]: < 5.70 |
| RLITVNPIV |  |  |  |  | IFN-γ ELISPOT positivity [4]: positive |
| RMLINRFTM [NS5237-45] | 21 nM | highest responses | < 5.70 |  | percentage killing of peptide-pulsed target cells [7]: 46% |
| TAIANQATV [NS4B66-74] | 1.3 nM |  | < 5.70 |  |  |
| VAFLRFLTI [Epitope C51-59] | 1380 nM | highest responses |  | 20 nM | CD107a surface expression (degranulation) [8]: expressed CD107a on the surface; TNF-α production by peptide-specific CD8^+ T cells [8]: produced TNF-α |
| VAVSFVTLI [NS2A36-44] | 997 nM |  |  | 12 nM | percent of CD8^+ T cells producing IFN-γ / recognizing the peptide [5]: 0.14% |
| VSWTMKIL [Epitope E451-458] |  |  |  |  | pIC50 [1]: < 5.70 |
